Source: US9321764B2, “Dihydro-pyrrolopyridinone inhibitors” (AbbVie Inc., priority 2013, dated 2016)

How the values were obtained:
[1] = test system: breast cancer cell line MX-1; assay: MX-1 cell line proliferation assay; format: cell-based; conditions: Homo sapiens, MX1, 72 h, MX-1 cells, 3-day proliferation assay, Cell Titer Glo; read-out: Cellular proliferation EC50
Procedure, shortened: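 Cells seeded at 5000/well in RPMI 1640 with 10% FBS, allowed to adhere overnight at 37 °C, then exposed to compound at final 0.0001–3 μM for 3 days. Viability read by Cell Titer Glo luminescence, normalized to DMSO controls; EC50 from sigmoidal curve fit.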

BRD4 (BDI_K57-E168) = target: T1, BRD4 (BDI_K57-E168) (Homo sapiens, UniProt O60885); assay: TR-FRET bromodomain binding assay, first bromodomain of BRD4; conditions: His-tagged BD1, 100 nM Alexa647 probe; TR-FRET protocol A-E given per row
T1 construct: BD1: amino acids K57-E168; made in house
Procedure, shortened: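 His-tagged BRD4 BD1 (K57-E168), 8 nM, with 1 nM Eu-anti-His antibody and 100 nM Alexa647-labelled BET-inhibitor probe in pH 6.0 phosphate buffer, 2% DMSO. TR-FRET read after 1 h at room temperature. IC50 from 4-parameter fit, converted to Ki using probe Kd and concentration.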

BRD4 (BDII_E352-M457) = target: T2, BRD4 (BDII_E352-M457) (Homo sapiens, UniProt O60885); assay: TR-FRET bromodomain binding assay, second bromodomain of BRD4; conditions: His-tagged BD2, 30 nM Alexa647 probe; TR-FRET protocol A-E given per row
T2 construct: proliferation; Protocol; made in house
Procedure, shortened: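 His-tagged BRD4 BD2 ([…]) competed against an Alexa647-labelled BET-inhibitor probe in TR-FRET. Buffer was 20 mM sodium phosphate pH 6.0, 50 mM NaCl, 1 mM EDTA, 0.01% Triton X-100, 1 mM DTT, with method D DMSO series of 2.5 mM–800 nM (stock range). IC50 from 4-parameter fit, Ki from probe Kd and concentration.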

| Compound | EC50 [1] [µM] | Ki (BRD4 (BDI_K57-E168)) [µM] | Ki (BRD4 (BDII_E352-M457)) [µM] |
| --- | --- | --- | --- |
| Cn1cc(-c2cc(CS(=O)(=O)N3CCCCC3)ccc2Oc2ccc(F)cc2F)c2cc[nH]c(=O)c21 [Example 103, 3-{2-(2,4-difluorophenoxy)-5-[(piperidin-1-ylsulfonyl)methyl]phenyl}-1-methyl-1,6-dihydro-7H-pyrrolo[2,3-c]pyridin-7-one] | 0.089 | 0.0084 | 0.0049 |
| Cn1cc(-c2cc(CS(=O)(=O)Nc3nccs3)ccc2Oc2ccc(F)cc2F)c2cc[nH]c(=O)c21 [Example 104, 1-[4-(2,4-difluorophenoxy)-3-(1-methyl-7-oxo-6,7-dihydro-1H-pyrrolo[2,3-c]pyridin-3-yl)phenyl]-N-(1,3-thiazol-2-yl)methanesulfonamide] | > 3 | 0.072 | 0.107 |
| Cn1cc(-c2cc(CN3CCNCC3)ccc2Oc2ccc(F)cc2F)c2cc[nH]c(=O)c21 [Example 105, 3-[2-(2,4-difluorophenoxy)-5-(piperazin-1-ylmethyl)phenyl]-1-methyl-1,6-dihydro-7H-pyrrolo[2,3-c]pyridin-7-one] | 0.806 | 0.528 | 0.329 |
| CCS(=O)(=O)NCc1ccc(Oc2ccc(F)cc2F)c(-c2cn(C)c3c(=O)[nH]ccc23)c1 [Example 106, N-[4-(2,4-difluorophenoxy)-3-(1-methyl-7-oxo-6,7-dihydro-1H-pyrrolo[2,3-c]pyridin-3-yl)benzyl]ethanesulfonamide] | 0.338 | 0.031 | 0.067 |
| Cn1cc(-c2cc(S(C)(=O)=O)ccc2Oc2ccc(F)cc2F)c2c(Cl)c[nH]c(=O)c21 [Example 108, 4-chloro-3-[2-(2,4-difluorophenoxy)-5-(methylsulfonyl)phenyl]-1-methyl-1,6-dihydro-7H-pyrrolo[2,3-c]pyridin-7-one] | 0.46 | 0.093 | 0.181 |
| Cn1cc(-c2cc(S(C)(=O)=O)ccc2OCCC2CC2)c2c(Cl)c[nH]c(=O)c21 [Example 109, 4-chloro-3-[2-(2-cyclopropylethoxy)-5-(methylsulfonyl)phenyl]-1-methyl-1,6-dihydro-7H-pyrrolo[2,3-c]pyridin-7-one] | 0.268 | 0.057 | 0.067 |
| Cn1cc(-c2cc(CS(C)(=O)=O)ccc2NCC2CC2)c2cc[nH]c(=O)c21 [Example 110, 3-{2-[(cyclopropylmethyl)amino]-5-[(methylsulfonyl)methyl]phenyl}-1-methyl-1,6-dihydro-7H-pyrrolo[2,3-c]pyridin-7-one] | 0.136 | 0.061 | 0.215 |
| Cn1cc(-c2cc(CN3CCC(N)CC3)ccc2Oc2ccc(F)cc2F)c2cc[nH]c(=O)c21 [Example 111, 3-{5-[(4-aminopiperidin-1-yl)methyl]-2-(2,4-difluorophenoxy)phenyl}-1-methyl-1,6-dihydro-7H-pyrrolo[2,3-c]pyridin-7-one] | 0.713 | 0.908 | 0.337 |
| CN(C)C1CCN(Cc2ccc(Oc3ccc(F)cc3F)c(-c3cn(C)c4c(=O)[nH]ccc34)c2)CC1 [Example 113, 3-[2-(2,4-difluorophenoxy)-5-{[4-(dimethylamino)piperidin-1-yl]methyl}phenyl]-1-methyl-1,6-dihydro-7H-pyrrolo[2,3-c]pyridin-7-one] | 1.63 | 0.583 | 0.506 |
| Cn1cc(-c2cc(CNCCC(C)(C)C)ccc2Oc2ccc(F)cc2F)c2cc[nH]c(=O)c21 [Example 114, 3-[2-(2,4-difluorophenoxy)-5-{[(3,3-dimethylbutyl)amino]methyl}phenyl]-1-methyl-1,6-dihydro-7H-pyrrolo[2,3-c]pyridin-7-one] | > 3 | 1.41 | 1.2 |
| COC1CCN(Cc2ccc(Oc3ccc(F)cc3F)c(-c3cn(C)c4c(=O)[nH]ccc34)c2)CC1 [Example 115, 3-{2-(2,4-difluorophenoxy)-5-[(4-methoxypiperidin-1-yl)methyl]phenyl}-1-methyl-1,6-dihydro-7H-pyrrolo[2,3-c]pyridin-7-one] | 1.42 | 1.35 | 1.33 |
| CN1CCN(Cc2ccc(Oc3ccc(F)cc3F)c(-c3cn(C)c4c(=O)[nH]ccc34)c2)CC1 [Example 116, 3-{2-(2,4-difluorophenoxy)-5-[(4-methylpiperazin-1-yl)methyl]phenyl}-1-methyl-1,6-dihydro-7H-pyrrolo[2,3-c]pyridin-7-one] | 0.578 | 0.093 | 0.145 |
| Cn1cc(-c2cc(CNCC3CC3)ccc2Oc2ccc(F)cc2F)c2cc[nH]c(=O)c21 [Example 118, 3-[5-{[(cyclopropylmethyl)amino]methyl}-2-(2,4-difluorophenoxy)phenyl]-1-methyl-1,6-dihydro-7H-pyrrolo[2,3-c]pyridin-7-one] | 1.51 | 0.776 | 0.382 |
| Cn1cc(-c2cc(CNCc3c[nH]cn3)ccc2Oc2ccc(F)cc2F)c2cc[nH]c(=O)c21 [Example 119, 3-[2-(2,4-difluorophenoxy)-5-{[(1H-imidazol-4-ylmethyl)amino]methyl}phenyl]-1-methyl-1,6-dihydro-7H-pyrrolo[2,3-c]pyridin-7-one] | > 3 | 0.599 | 0.478 |
| Cn1cc(-c2cc(CCl)ccc2Oc2ccc(F)cc2F)c2cc[nH]c(=O)c21 [Example 120, 3-[5-(chloromethyl)-2-(2,4-difluorophenoxy)phenyl]-1-methyl-1,6-dihydro-7H-pyrrolo[2,3-c]pyridin-7-one] | 0.306 | 0.077 | 0.208 |
| Cn1cc(-c2cc(CS(C)(=O)=O)ccc2Nc2ccc(F)cc2)c2cc[nH]c(=O)c21 [Example 121, 3-{2-[(4-fluorophenyl)amino]-5-[(methylsulfonyl)methyl]phenyl}-1-methyl-1,6-dihydro-7H-pyrrolo[2,3-c]pyridin-7-one] | 0.04 | 0.012 | 0.079 |
| Cn1cc(-c2cc(CS(C)(=O)=O)ccc2Nc2ccc(F)cc2F)c2cc[nH]c(=O)c21 [Example 122, 3-{2-[(2,4-difluorophenyl)amino]-5-[(methylsulfonyl)methyl]phenyl}-1-methyl-1,6-dihydro-7H-pyrrolo[2,3-c]pyridin-7-one] | 0.044 | 0.025 | 0.055 |
| Cn1cc(-c2cc(S(=O)(=O)N3CC(F)(F)C3)ccc2OCC2CC2)c2cc[nH]c(=O)c21 [Example 125, 3-{2-(cyclopropylmethoxy)-5-[(3,3-difluoroazetidin-1-yl)sulfonyl]phenyl}-1-methyl-1,6-dihydro-7H-pyrrolo[2,3-c]pyridin-7-one] | 0.267 | 0.069 | 0.092 |
| CCS(=O)(=O)c1ccc(Oc2ccc(F)cc2F)c(-c2cn(C)c3c(=O)[nH]c(/C=C(\Cl)CCO)cc23)c1 [Example 126, 5-[(1Z)-2-chloro-4-hydroxybut-1-en-1-yl]-3-[2-(2,4-difluorophenoxy)-5-(ethylsulfonyl)phenyl]-1-methyl-1,6-dihydro-7H-pyrrolo[2,3-c]pyridin-7-one] | 0.0819 | 0.0083 | 0.0057 |
| Cn1cc(-c2cc(CNCc3ccoc3)ccc2Oc2ccc(F)cc2F)c2cc[nH]c(=O)c21 [Example 127, 3-[2-(2,4-difluorophenoxy)-5-{[(furan-3-ylmethyl)amino]methyl}phenyl]-1-methyl-1,6-dihydro-7H-pyrrolo[2,3-c]pyridin-7-one] | 0.947 | 0.619 | 0.476 |
| Cn1cc(-c2cc(CNCCC3CCCC3)ccc2Oc2ccc(F)cc2F)c2cc[nH]c(=O)c21 [Example 128, 3-[5-{[(2-cyclopentylethyl)amino]methyl}-2-(2,4-difluorophenoxy)phenyl]-1-methyl-1,6-dihydro-7H-pyrrolo[2,3-c]pyridin-7-one] | > 3 | 1.49 | 0.654 |
| COc1ccccc1S(=O)(=O)NCc1ccc(Oc2ccc(F)cc2F)c(-c2cn(C)c3c(=O)[nH]ccc23)c1 [Example 130, N-[4-(2,4-difluorophenoxy)-3-(1-methyl-7-oxo-6,7-dihydro-1H-pyrrolo[2,3-c]pyridin-3-yl)benzyl]-2-methoxybenzenesulfonamide] | > 3 | 0.247 | 1.15 |
| Cn1cc(-c2cc(CNS(=O)(=O)Cc3ccc(Cl)cc3)ccc2Oc2ccc(F)cc2F)c2cc[nH]c(=O)c21 [Example 131, 1-(4-chlorophenyl)-N-[4-(2,4-difluorophenoxy)-3-(1-methyl-7-oxo-6,7-dihydro-1H-pyrrolo[2,3-c]pyridin-3-yl)benzyl]methanesulfonamide] | 1.4 | 0.281 | 1.25 |
| Cc1ccc(CS(=O)(=O)NCc2ccc(Oc3ccc(F)cc3F)c(-c3cn(C)c4c(=O)[nH]ccc34)c2)cc1 [Example 132, N-[4-(2,4-difluorophenoxy)-3-(1-methyl-7-oxo-6,7-dihydro-1H-pyrrolo[2,3-c]pyridin-3-yl)benzyl]-1-(4-methylphenyl)methanesulfonamide] | 0.658 | 0.249 | 1.24 |
